# Reference: paper PMC7462607 (eLife, 2020)
# “And” between values parts separate entries of the source, which are not always exact repeats. Equal entries are not always repeated.
# Tests used:
# [1] = molecular target: T1, CDK12/CCNK with DDB1-CUL4-RBX1 (Homo sapiens, UniProt Q9NYV4); test: In vitro ubiquitination of CCNK; format: biochemical; conditions: E1, E2, E3 and HQ461 present
# T1 construct: made in house; host or cells: 293F cells (CDK12/CCNK, UBA1, UBE2G1, UBE2D3, CUL4A/RBX1); Sf9 (His-DDB1); E. coli BL21(DE3) (His-ubiquitin)
# T1 sequence (Q9NYV4 1-1481 isoform Q9NYV4-2): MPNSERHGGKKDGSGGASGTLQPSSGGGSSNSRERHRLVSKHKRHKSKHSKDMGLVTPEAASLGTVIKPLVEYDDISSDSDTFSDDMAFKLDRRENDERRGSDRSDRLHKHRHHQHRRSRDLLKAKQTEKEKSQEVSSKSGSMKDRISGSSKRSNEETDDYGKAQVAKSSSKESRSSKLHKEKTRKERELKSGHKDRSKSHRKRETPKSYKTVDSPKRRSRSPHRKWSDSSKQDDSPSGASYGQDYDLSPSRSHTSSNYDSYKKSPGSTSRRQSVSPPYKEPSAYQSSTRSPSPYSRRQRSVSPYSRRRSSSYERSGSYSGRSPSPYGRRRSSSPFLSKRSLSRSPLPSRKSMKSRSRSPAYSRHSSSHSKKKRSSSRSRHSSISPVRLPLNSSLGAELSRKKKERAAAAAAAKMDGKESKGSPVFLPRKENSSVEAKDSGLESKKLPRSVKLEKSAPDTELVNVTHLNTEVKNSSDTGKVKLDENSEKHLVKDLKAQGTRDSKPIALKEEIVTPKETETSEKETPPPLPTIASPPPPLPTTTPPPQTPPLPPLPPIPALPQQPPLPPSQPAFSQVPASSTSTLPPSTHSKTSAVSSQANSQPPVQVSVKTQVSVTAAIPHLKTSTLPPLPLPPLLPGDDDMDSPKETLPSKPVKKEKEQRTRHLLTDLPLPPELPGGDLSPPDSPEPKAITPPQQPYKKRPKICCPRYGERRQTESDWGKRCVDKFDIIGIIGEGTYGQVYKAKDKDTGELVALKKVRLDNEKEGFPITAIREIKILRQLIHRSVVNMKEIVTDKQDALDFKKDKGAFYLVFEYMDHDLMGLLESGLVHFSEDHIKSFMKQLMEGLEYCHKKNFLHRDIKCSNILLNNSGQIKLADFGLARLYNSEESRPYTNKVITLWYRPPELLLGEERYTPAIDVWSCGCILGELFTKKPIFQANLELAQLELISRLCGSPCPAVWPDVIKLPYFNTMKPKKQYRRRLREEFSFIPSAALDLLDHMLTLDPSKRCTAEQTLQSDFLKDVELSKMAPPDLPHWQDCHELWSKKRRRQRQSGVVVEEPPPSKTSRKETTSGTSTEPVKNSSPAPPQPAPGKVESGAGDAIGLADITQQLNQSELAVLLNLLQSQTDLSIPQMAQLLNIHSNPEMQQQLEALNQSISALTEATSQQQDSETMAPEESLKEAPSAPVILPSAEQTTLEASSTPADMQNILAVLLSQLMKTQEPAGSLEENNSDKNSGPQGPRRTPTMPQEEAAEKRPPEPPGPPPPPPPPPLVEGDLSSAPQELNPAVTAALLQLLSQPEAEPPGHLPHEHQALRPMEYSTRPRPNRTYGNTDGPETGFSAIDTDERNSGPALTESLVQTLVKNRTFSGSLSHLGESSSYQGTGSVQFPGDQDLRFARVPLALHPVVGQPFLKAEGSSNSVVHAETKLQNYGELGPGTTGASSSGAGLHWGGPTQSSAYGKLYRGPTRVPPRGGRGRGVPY
# T1 sequence (O75909 whole entry partner): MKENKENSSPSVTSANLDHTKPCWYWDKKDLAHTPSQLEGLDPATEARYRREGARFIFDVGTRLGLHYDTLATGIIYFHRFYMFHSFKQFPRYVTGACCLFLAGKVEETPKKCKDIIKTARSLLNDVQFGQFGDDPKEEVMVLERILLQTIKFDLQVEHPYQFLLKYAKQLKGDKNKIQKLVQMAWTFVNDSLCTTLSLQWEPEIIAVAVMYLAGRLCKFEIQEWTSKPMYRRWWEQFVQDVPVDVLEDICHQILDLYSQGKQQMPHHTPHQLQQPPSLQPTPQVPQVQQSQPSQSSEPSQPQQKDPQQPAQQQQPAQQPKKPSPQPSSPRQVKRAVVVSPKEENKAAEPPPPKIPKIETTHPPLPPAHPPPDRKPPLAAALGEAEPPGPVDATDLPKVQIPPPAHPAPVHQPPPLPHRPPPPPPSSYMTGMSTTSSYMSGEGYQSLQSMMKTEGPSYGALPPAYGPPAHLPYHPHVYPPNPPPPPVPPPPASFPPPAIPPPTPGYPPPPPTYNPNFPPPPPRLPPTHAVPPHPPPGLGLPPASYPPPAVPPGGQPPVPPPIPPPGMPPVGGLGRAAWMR
# T1 sequence (Q16531 whole entry partner): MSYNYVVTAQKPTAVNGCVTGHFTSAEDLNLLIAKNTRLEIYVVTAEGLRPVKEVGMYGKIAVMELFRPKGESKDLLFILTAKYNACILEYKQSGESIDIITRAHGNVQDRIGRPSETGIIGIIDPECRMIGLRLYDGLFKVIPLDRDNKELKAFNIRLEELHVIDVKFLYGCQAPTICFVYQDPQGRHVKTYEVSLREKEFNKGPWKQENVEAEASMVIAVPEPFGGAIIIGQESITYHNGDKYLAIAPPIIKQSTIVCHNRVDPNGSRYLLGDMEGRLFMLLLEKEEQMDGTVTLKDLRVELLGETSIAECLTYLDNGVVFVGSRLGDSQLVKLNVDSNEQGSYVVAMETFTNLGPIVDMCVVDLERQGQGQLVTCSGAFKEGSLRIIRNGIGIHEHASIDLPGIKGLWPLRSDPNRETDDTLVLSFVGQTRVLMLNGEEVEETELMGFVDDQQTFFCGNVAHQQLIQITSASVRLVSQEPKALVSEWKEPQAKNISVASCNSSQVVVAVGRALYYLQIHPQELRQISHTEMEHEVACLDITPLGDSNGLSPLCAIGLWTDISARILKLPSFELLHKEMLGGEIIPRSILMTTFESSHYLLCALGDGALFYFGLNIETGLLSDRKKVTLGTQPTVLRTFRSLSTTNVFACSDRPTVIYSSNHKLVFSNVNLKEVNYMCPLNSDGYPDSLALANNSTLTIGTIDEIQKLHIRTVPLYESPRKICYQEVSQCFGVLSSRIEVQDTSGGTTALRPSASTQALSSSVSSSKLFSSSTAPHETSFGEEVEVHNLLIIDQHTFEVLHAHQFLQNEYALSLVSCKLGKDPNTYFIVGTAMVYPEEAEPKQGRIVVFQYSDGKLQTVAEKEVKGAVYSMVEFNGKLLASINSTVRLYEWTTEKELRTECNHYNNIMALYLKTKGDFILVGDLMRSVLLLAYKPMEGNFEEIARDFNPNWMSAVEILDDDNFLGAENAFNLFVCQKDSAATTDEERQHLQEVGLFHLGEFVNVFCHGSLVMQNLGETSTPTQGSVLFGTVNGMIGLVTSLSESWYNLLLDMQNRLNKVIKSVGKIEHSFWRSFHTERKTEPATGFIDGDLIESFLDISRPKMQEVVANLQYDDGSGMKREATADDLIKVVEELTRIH
# T1 sequence (Q13619 whole entry partner): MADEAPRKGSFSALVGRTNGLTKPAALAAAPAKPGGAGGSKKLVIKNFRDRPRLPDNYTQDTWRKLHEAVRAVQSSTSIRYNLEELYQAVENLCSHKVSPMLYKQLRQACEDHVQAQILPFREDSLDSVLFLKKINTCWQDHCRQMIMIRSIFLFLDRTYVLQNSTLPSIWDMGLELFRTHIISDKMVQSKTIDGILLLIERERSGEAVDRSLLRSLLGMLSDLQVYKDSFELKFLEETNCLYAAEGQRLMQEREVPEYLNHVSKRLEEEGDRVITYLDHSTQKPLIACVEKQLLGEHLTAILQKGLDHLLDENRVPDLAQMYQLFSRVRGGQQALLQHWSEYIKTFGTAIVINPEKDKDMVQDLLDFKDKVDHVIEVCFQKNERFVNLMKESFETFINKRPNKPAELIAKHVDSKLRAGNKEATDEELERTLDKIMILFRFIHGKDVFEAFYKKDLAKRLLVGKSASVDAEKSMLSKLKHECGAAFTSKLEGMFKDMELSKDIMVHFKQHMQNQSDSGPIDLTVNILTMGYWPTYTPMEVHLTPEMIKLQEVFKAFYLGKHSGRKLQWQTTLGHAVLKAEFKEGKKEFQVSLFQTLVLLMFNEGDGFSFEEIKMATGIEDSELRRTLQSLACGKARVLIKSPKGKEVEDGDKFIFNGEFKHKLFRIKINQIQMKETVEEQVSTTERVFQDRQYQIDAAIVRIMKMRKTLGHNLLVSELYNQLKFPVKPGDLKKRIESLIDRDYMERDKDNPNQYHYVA
# T1 sequence (P62877 whole entry partner): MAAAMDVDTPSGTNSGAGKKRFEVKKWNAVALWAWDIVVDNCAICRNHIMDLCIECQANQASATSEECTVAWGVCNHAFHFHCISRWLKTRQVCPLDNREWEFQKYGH
# Protocol: Human Ubiquitin ORF was cloned into pET28a vector with an N-terminal 6xHis tag. The resulting pET28a-6xHis-Ub plasmid was transformed into the E. coli strain BL21 (DE3) and grown at 37°C until OD600 reached ~0.8. His-Ub expression was induced overnight by 0.5 mM IPTG at 18°C. Cells were collected by centrifugation at 4000 g and resuspended with lysis buffer containing 50 mM Tris-HCl, pH 7.5, 500 mM NaCl, 20 mM imidazole, 5% glycerol. Cell lysis was performed by French Press. After 20,000 g centrifugation for 1 hr at 4°C, the supernatant was incubated with Ni-NTA resin. After extensive wash with lysis buffer, His-Ub was eluted from Ni-NTA resin with 50 mM Tris-HCl, pH 7.5, 500 mM NaCl, 300 mM imidazole, 5% glycerol. Fractions containing His-Ub were pooled and concentrated, followed by gel filtration on a Superdex 200 10/300 GL column (GE Healthcare, Chicago, USA) in gel filtration buffer (50 mM Tris-HCl, pH7.5, 10 mM NaCl, 1 mM DTT). Fractions containing His-Ub were pooled and concentrated by a 3 KDa MWCO Ultra centrifugal filter (Amicon), flash frozen with liquid nitrogen, and stored at −80°C before use.
# Human ORFs encoding UBA1 (residues 49–1058, NP_003325.2), UBE2G1 (NP_003333.1), UBE2D3 (NP_003331.1), CUL4A (NP_001008895.1) were cloned into pPB-CAG-1xFLAG vector. ORF encoding human RBX1 (NP_055063.1) was cloned into pPB-CAG vector without a tag. […]
# [2] = molecular target: T2, FLAG-Avi-DDB1 and His-CDK12KD G731E/His-CCNKΔC (Homo sapiens, UniProt Q9NYV4, G731E); test: AlphaScreen assay, G731E; format: binding; conditions: for AlphaScreen: G731E, raw signal
# T2 construct: Human CDK12KD (residues 715–1052); made in house; host or cells: Sf9 or High Five (CDK12KD/CCNKΔC, co-infected with yeast CAK1); 293F with BirA (FLAG-Avi-DDB1)
# T2 sequence (Q9NYV4 715-1052 G731E limits assumed): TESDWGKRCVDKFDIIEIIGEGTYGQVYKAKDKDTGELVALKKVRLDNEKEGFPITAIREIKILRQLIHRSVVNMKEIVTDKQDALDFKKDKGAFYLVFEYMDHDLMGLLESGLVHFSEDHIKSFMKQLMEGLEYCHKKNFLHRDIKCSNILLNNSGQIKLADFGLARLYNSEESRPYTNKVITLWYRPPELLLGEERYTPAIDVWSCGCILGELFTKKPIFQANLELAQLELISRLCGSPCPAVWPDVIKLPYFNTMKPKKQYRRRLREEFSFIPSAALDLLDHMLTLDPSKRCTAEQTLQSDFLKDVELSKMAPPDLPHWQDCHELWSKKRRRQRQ
# T2 sequence (O75909 11-267 partner limits assumed): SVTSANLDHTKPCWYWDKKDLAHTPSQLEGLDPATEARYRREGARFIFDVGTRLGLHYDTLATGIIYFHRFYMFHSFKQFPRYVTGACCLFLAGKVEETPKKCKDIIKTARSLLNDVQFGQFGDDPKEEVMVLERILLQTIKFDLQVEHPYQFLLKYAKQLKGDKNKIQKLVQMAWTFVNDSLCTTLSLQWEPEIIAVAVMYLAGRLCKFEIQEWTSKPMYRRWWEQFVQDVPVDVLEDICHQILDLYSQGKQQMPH
# Protocol: Biotinylated FLAG-Avi-DDB1 (3 µM) and 6xHis-CDK12KD/6xHis-CCNKΔC (WT or G731E/R mutants) (3 µM) were mixed in an assay buffer (50 mM HEPES, pH7.5, 300 mM NaCl, 0.5 mM TCEP, 0.1% NP-40, 0.1% BSA) and a serial dilution of HQ461.The protein-compound mix was transferred to 384-well plates (Corning, Corning, USA); 15 μL per well. After a 1 hr room temperature incubation, 10 µL of nickel chelate (Ni-NTA) acceptor beads (PerkinElmer, Waltham, USA, Waltham, USA, 6760619C) (1:100 diluted with assay buffer) was added per well. After incubation in the dark for 1 hr at room temperature, 10 μL of streptavidin donor beads (PerkinElmer, Waltham, USA, 6760619C) (1:100 diluted in assay buffer) was added per well. After another 1 hr incubation, AlphaScreen signal was measured on the EnVision multimode plate reader (PerkinElmer, Waltham, USA). For THZ531 competition, FLAG-Avi-DDB1, 6xHis-CDK12KD/6xHis-CCNKΔC mix was preincubated with 5 μM of THZ531 for 30 min on ice followed by the procedures described above.
structure (smiles),measurement,setting,value
"Cc1cccc(Nc2nc(CC(=O)Nc3ncc(C)s3)cs2)n1 [HQ461, 2-(2-((6-methylpyridin-2-yl)amino)thiazol-4-yl)-N-(5-methylthiazol-2-yl)acetamide]",in vitro polyubiquitination,[1],polyubiquitination of CCNK but not CDK12
same,AlphaScreen,[2]; HQ461 2.22e-6 M,1248 and 1240 and 1185
same,AlphaScreen,[2]; HQ461 6.67e-6 M,1251 and 1198 and 1100
same,AlphaScreen,[2]; HQ461 2e-5 M,1233 and 1200 and 1143
same,AlphaScreen,[2]; HQ461 2.47E-07 M,1234 and 1107 and 1145
same,AlphaScreen,[2]; HQ461 2.74E-08 M,1248 and 1124 and 1169
same,AlphaScreen,[2]; HQ461 7.41E-07 M,1137 and 1171 and 1109
same,AlphaScreen,[2]; HQ461 8.23E-08 M,1304 and 1157 and 1110
same,"complex formation with DDB1, G731E mutant",[2]; even with 20 µM of HQ461,did not form a complex with DDB1
